Values after ≈ are worked out from the molar mass of the structure shown.
Tested on: P388
Test: Cytotoxicity against mouse P388 cells
Assay type: functional
Conditions: read-out: ED50 (the source's name)

For `C\C(=C/C=C/C(C)=C1/C(=O)C[C@H]2[C@@]3(C)CCC(=O)C(C)(C)[C@@H]3CC[C@]12C)c1ccc(C)c(=O)o1` [STELLETIN A], which EC50 is on record?
The EC50 was 1 ng/mL (≈ 2.16 nM).

— ChEMBL document CHEMBL1148077, “Stellettin A, a new triterpenoid pigment from the marine sponge Stelletta tenuis” (1994)
